Assay results as given in US8710045B2, “Agents for preventing and treating disorders involving modulation of the ryanodine receptors” (The Trustees of Columbia University in the City of New York, priority 2004, dated 2014).

Assays:
[1] = tested on: L-type calcium channel current; test: S107 specificity: L-type calcium channel current; details: 500 nM
calpain = test: Calpain activity assay in EDL homogenates of chronically exercised mice; type: in vivo, mouse
Experimental: Calpain and Creatine Kinase Assays: Tissue calpain activities were measured using a calpain activity assay kit (Calbiochem, San Diego, Calif.) (FIG. 42B). This assay is based on the degradation of the fluorescent peptide substrate Suc-LLVY-AMC (Calbiochem). Muscle homogenates were diluted to a final concentration of 600 μg/ml and the calpain activity in the homogenate was determined as per manufactures instructions. Plasma creatine kinase (CK) activity was assayed using the regent kit from Pointe Scientific, Inc. (Canton, Mich.) (FIG. 42A). Plasma samples (duplicates, 5 μl each) were added to 200 μl of CK reagent and the change in absorbance at 340 nm was recorded over 4 minutes using a plate reader. The average absorbance change per minute was used to determine the CPK levels as per manufacturer's instructions.
Reduced calpain activation in muscle tissue and reduced muscle tissue damage due to calstabin1 rebinding: One possible mechanism by which calcium released by leaky RyR1 channels impairs exercise performance is the activation of a member of the calpain family of Ca^2+-dependent neutral proteases, which are known to be responsible for muscle damage in a number of pathophysiological states. […] Calpain activity in muscle homogenates was assessed by means of the degradation of the synthetic calpain substrate Suc-LLVY-AMC, which fluoresces upon cleavage by calpain.

RyR1 [2] = biological target: T1, RyR1 (Mus musculus, UniProt E9PZQ0); test: RyR1 single channel recording in planar lipid bilayers from exercised mice; type: in vivo; details: 90 nM [Ca2+]cis
T1 construct: RyR1 was immunoprecipitated from soleus muscle homogenates of mice following 21 days of exercise; from tissue; host or cells: mouse hind-limb skeletal muscle (soleus, EDL; SR microsomes for bilayer recording)
Experimental: RyR1 channels were reconstituted by spontaneous fusion of microsomes into the planar lipid bilayer (a mixture of phosphatidylethanolamine and phosphatidylserine in a 3:1 ratio, Avanti Polar Lipids). Planar lipid bilayers were formed across a 200 μm aperture in a polysulfonate cup (Warner Instruments, Inc.), which separated two bathing solutions (1 mM EGTA, 250/125 mM HEPES/Tris, 50 mM KCl, 0.5 mM CaCl2, pH 7.35 as cis solution and 53 mM Ba(OH)2, 50 mM KCl, 250 mM HEPES, pH 7.35 as trans solution). After incorporation, RyR1 channel activity was recorded continuously for at least 10 minutes. The concentration of free Ca^2+ in the cis chamber was calculated with WinMaxC program (version 2.50) (Bers, Patton et al. 1994). Single channel currents were recorded at 0 mV using the Axopatch 200A patch-clamp amplifier (Axon Instruments, USA) in gap-free mode, filtered at 1 kHz, and digitized at 10 kHz. Data acquisition was performed using Digidata 1322A and Axoscope 9 software (Axon Instruments, USA). The recordings were analyzed using Clampfit 10.1 (Molecular Devices, USA) and Origin software (ver. 6.0, Microcal Software, Inc., USA).
Chronic exercise results in leaky RyR1 Channels which can be reversed by calstabin1 rebinding: A critical issue is whether the biochemical changes in the RyR1 macromolecular complex identified during exercise result in changes in RyR1 channel activity. […]

RyR1 [3] = biological target: T1, RyR1; test: Analysis of ryanodine receptor complex from EDL after chronic exercise (immunoprecipitation, immunoblot); type: in vivo; details: chronic exercise protocol
Experimental: Analysis of Ryanodine Receptor Complex: 10 mg muscle samples were isotonically lysed. […] The samples were incubated with protein A Sepharose beads (Amersham Pharmacia) at 4° C. for 1 h, after which the beads were washed three times with buffer. Proteins were separated on SDS-PAGE gels (4-20% gradient) and transferred onto nitrocellulose membranes overnight (SemiDry transfer blot, Bio-Rad). After incubation with blocking solution (LICOR Biosciences, Lincoln Nebr.) to prevent non-specific antibody binding and a wash in Tris-buffered saline with 0.1% Tween-20, membranes were incubated for 1-2 h at room temperature with primary antibodies anti-calstabin (1:2500 in blocking buffer), anti-RyR (5029, 1:5,000), or anti-phospho-RyR2-pSer2809 (1:5000), which detects PKA-phosphorylated mouse RyR1-pSer2844 and RyR2-pSer2808, anti-PDE4D3 (1:1000). After three washes, membranes were incubated with infrared labeled secondary antibodies (1:10,000 dilution, LICOR Biosystems). Band densities were quantified using the Odyssey Infrared Imaging System (LICOR Biosciences).

EDL muscle = test: Isometric force production of isolated EDL muscle after chronic exercise; type: in vivo, mouse; details: stimulation frequencies greater than 80 Hz
Experimental: Intact muscle preparation: Immediately following a forced exercise session, each mouse was sacrificed by carbon dioxide inhalation and cervical dislocation. Blood was removed by intracardiac aspiration, spun down, and plasma was eluted and frozen in liquid nitrogen. 4-0 silk sutures were tied to the proximal and distal tendons of intact EDL and soleus muscles and the muscles were dissected free and placed in a modified Ringer's solution (140 mM NaCl, 5 mM KCl, 2.0 mM CaCl2, 2 mM MgCl2, 10 mM HEPES, 10 mM glucose, pH 7.4) bubbled with 100% O2. […] After perfusion with 35C Ringer's and equilibration for 10 minutes at a resting tension of 1 cN and a brief potentiation protocol, force-frequency relationships were measured, with 60 second delays between 800 ms stimulations at 40-150 Hz. […] Following stimulation, muscle length was determined at resting tension, and muscle dry weight was recorded.
Age and sex-matched WT mice were randomized to receive osmotic pumps containing either S107 or vehicle. […] Exercise capacity was assessed once a week by a level treadmill run to exhaustion during the nocturnal cycle of the mouse. […] Isometric force production was measured in EDL muscles in a tissue bath during field stimulation.

T1 sequence (E9PZQ0 whole entry): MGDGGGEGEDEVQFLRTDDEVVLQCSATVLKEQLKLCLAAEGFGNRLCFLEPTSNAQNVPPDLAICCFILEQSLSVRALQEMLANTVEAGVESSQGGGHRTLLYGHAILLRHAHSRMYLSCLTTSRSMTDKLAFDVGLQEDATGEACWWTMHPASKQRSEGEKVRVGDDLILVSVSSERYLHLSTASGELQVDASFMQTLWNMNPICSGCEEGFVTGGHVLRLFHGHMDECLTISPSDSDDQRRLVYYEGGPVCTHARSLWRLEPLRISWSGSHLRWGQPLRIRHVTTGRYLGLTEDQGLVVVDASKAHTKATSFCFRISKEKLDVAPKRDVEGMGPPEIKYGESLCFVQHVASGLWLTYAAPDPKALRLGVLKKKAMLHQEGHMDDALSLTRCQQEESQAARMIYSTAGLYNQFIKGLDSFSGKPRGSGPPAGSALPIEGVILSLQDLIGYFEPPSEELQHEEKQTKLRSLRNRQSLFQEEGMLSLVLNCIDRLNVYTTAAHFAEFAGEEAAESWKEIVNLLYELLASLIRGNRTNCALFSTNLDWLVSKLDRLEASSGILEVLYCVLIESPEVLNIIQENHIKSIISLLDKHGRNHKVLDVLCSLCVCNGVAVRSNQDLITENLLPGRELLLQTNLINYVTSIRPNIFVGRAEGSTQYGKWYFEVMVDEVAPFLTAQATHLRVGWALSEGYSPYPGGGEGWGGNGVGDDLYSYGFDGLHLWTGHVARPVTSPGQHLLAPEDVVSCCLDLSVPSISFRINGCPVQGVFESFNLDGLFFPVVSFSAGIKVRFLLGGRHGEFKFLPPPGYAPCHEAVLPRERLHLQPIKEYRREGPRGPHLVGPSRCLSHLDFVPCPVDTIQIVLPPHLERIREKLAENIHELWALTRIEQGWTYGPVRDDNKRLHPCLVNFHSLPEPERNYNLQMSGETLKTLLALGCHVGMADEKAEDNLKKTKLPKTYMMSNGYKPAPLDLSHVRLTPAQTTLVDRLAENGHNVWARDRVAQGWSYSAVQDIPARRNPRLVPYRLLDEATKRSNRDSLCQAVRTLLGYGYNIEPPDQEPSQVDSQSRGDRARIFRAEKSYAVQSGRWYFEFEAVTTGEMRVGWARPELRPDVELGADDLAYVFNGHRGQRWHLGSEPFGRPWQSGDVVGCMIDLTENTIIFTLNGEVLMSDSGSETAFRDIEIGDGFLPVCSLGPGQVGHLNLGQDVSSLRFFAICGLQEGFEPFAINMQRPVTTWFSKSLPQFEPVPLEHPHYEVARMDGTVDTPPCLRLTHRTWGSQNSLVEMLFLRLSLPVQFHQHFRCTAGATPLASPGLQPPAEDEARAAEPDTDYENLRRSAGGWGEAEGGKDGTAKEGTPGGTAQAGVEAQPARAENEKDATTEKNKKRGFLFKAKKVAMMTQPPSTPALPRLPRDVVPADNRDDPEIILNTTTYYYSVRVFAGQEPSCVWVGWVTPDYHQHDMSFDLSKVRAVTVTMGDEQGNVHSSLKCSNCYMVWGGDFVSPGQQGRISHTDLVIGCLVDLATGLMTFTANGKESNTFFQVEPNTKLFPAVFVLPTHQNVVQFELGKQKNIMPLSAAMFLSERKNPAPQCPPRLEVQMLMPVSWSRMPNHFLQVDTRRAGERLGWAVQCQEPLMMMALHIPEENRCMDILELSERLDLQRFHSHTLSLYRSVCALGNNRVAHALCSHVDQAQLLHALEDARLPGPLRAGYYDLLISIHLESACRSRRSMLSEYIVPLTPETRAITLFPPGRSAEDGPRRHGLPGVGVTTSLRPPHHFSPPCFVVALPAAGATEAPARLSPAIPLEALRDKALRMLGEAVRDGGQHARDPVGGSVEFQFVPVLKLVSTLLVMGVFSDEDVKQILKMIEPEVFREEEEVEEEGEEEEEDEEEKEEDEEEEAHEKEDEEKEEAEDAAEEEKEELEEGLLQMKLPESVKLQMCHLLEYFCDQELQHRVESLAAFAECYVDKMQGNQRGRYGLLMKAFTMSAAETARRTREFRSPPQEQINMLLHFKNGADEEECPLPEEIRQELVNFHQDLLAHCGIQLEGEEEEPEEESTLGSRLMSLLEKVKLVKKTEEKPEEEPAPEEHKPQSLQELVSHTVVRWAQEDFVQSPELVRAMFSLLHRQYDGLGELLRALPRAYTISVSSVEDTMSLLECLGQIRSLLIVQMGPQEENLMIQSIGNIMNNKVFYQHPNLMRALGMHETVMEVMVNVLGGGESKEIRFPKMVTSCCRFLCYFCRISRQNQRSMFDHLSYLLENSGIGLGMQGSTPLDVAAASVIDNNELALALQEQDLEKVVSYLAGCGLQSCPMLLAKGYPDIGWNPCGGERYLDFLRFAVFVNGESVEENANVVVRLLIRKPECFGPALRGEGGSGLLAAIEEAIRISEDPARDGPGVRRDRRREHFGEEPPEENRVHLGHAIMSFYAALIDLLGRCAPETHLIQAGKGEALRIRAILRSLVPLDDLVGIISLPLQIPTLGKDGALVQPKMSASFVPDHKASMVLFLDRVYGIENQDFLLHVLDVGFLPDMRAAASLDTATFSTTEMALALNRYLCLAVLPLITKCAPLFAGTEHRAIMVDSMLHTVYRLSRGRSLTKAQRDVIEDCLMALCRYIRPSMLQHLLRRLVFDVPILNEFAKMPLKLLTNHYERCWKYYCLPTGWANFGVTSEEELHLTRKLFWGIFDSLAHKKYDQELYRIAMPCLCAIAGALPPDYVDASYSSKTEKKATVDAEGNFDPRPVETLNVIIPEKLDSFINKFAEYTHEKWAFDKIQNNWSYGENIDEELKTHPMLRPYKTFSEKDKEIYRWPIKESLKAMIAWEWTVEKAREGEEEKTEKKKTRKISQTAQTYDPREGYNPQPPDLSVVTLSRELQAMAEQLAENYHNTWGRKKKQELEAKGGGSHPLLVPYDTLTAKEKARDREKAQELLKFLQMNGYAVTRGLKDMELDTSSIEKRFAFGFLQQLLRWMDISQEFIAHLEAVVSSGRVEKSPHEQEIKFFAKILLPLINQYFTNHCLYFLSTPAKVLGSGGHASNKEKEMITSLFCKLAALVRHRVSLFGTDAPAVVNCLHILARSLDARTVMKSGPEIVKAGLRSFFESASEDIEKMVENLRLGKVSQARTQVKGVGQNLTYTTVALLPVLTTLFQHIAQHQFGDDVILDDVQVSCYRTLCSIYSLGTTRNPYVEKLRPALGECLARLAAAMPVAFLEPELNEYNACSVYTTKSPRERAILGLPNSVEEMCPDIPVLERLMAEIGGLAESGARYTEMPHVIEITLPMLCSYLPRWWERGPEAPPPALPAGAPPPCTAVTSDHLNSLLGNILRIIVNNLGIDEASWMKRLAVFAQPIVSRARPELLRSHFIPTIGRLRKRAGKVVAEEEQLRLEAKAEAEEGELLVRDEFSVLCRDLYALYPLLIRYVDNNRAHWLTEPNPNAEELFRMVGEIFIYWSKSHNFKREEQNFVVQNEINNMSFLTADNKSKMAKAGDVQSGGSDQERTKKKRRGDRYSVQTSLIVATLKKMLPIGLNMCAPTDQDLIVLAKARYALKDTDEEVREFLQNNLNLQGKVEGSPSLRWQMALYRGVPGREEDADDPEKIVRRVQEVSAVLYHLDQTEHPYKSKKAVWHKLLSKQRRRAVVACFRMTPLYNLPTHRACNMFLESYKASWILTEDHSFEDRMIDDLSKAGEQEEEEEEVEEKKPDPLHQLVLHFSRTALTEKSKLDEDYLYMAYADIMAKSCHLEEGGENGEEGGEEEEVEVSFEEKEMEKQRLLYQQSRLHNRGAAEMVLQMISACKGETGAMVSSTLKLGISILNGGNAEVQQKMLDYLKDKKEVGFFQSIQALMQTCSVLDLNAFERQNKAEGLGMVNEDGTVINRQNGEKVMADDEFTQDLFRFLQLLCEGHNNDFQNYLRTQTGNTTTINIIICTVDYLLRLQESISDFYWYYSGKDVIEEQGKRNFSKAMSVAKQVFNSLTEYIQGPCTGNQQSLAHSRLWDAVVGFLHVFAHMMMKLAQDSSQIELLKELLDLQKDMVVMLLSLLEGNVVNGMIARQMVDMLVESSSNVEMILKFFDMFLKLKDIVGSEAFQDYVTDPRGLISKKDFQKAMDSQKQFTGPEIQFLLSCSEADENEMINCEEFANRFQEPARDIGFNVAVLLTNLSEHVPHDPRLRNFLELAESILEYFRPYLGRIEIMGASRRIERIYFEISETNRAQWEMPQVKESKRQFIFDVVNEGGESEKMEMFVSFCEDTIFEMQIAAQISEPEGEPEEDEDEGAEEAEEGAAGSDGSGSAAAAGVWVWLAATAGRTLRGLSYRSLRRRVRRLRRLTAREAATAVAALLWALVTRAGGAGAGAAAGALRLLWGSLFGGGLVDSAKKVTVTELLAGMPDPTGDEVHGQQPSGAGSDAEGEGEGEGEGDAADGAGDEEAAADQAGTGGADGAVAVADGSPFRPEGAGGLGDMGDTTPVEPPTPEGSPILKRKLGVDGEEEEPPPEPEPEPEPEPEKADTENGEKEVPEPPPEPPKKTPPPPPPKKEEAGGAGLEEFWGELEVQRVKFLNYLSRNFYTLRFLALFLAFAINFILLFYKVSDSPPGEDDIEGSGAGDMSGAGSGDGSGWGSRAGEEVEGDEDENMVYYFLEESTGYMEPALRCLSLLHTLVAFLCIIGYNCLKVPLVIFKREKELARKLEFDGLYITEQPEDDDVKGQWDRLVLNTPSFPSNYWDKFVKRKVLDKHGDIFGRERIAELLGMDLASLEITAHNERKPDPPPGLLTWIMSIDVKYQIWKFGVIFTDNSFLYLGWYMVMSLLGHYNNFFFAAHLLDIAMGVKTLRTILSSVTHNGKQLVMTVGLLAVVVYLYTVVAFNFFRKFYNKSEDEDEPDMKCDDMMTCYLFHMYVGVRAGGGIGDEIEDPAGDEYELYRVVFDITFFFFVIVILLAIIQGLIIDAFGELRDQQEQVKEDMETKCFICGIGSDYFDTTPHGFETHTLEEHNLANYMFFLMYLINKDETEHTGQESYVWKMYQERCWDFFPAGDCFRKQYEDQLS
T1 sequence (P26883 2-108 partner limits assumed): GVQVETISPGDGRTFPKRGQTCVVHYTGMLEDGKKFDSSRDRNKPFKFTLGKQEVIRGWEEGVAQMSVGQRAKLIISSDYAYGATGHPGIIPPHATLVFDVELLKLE

## COc1ccc2c(c1)CN(C)CCS2 [S107]
[1]
  effect on L-type calcium channel current: not to affect
calpain
  Calpain activity in EDL homogenates: significantly reduced
RyR1 [2]
  duration of the channel dwell times: Neither chronic exercise nor S107 had any effect
RyR1 [2]; Ex+S107 vs Ex+veh, p<0.005
  RyR1 open probability: significant decrease
RyR1 [3]
  Calstabin1 depletion from RyR1: nearly entirely reversed
EDL muscle
  EDL isometric force production: increased force production
